{"source": "patent US8114406B2", "about": "“Peptides and their utility in modulation of behavior of cells expressing α3β1 integrins” (The United States of America as represented by the …, priority 1999, dated 2012)", "key": {"OH1 SCLC cells": {"system": "OH1 SCLC cells", "type": "cell-based, human", "settings": "72 h", "description": "Net, proliferation was determined by the CellTiter assay (Promega) and is presented as mean±SD, n=3. […] The cells were fixed and photographed using Nomarski optics. Bar=100 μm. […] Panel E: α3β1 Integrin ligands cooperate with EGF to inhibit OH1 cell proliferation. […] Net proliferation is presented as a percent of the -EGF control (mean±SD, n=3 for treated groups and n=6 for control groups).\nProteins and peptides were immobilized on Nunc Maxisorp 96 well plates by overnight incubation with the proteins or peptides dissolved in 50 μl of sterile Dulbecco's PBS. The supernatant fluid was removed, and the wells were incubated for 30 min. in DPBS containing 1% BSA. OH1 cells (1×10^4/well) were added in RPMI containing 15% FCS and incubated for 72 h at 37° in 5% CO2. For assessing inhibition by soluble proteins or peptides, OH1 cells were grown in suspension in Nunclon 96 well tissue culture plates using the same medium."}, "HUVEC": {"system": "HUVEC", "experiment": "HUVEC spreading on coated substrates", "type": "cell-based, human", "settings": "for percent spread HUVEC on immobilized substrate: data not shown", "description": "FIGS. 14A, 14B and 14C display α3β1 and αvβ3 integrin-mediated spreading of endothelial cells on thrombospondin-1. […] Results are expressed as percent of the response for untreated cells, mean±S.D., n=3.\nAdhesion assays of cells other than small cell lung carcinoma (SCLC)-Adhesion was measured on polystyrene or glass substrates coated with peptides or proteins as previously described (Guo et al., 1992). Peptides dissolved in PBS at 0.4 to 50 μM were incubated in polystyrene microliter plate wells overnight at 4° C. The wells were washed 3 times with distilled water. Adsorbed peptide was quantified using the BCA assay (Pierce Chemical) measuring absorbance at 570 and 630 nm as described by the supplier's protocol. The assay for adsorption was calibrated using purified peptide in solution as a standard. After blocking with 1% BSA in Dulbecco's PBS, adhesion assays were performed by adding cells suspended in DMEM (BAE cells) or medium 199 (human cells) containing 1 mg/ml BSA. Cell attachment and spreading was quantified microscopically."}}, "note": "Where no end group is shown, it is not given here.", "data": [{"sequence": "FQGVLQNVRFVF [Peptide 678]", "values": [{"measurement": "IC50", "setting": "OH1 SCLC cells", "value": 6, "unit": "µM"}, {"measurement": "inhibition of HUVEC spreading on vitronectin", "setting": "HUVEC", "value": "not significantly inhibited"}, {"measurement": "inhibition of HUVEC spreading on TSP1", "setting": "HUVEC; 20 μM peptide 678 (FIG. 14B)", "value": "70±7", "unit": "%"}, {"measurement": "percent spread HUVEC on immobilized substrate", "setting": "HUVEC; confluent cells", "value": "3±1", "unit": "%"}, {"measurement": "percent spread HUVEC on immobilized substrate", "setting": "HUVEC; sparse cultures", "value": "12±3", "unit": "%"}, {"measurement": "inhibition of BAE cell spreading on fibronectin or vitronectin substrates", "setting": "BAE cells", "value": "did not inhibit"}, {"measurement": "inhibition of BAE spreading on fibronectin", "setting": "BAE cells; 30 μM (FIG. 12)", "value": "did not inhibit"}, {"measurement": "inhibition of density-dependent BAE spreading on intact TSP1 and the TSP1 peptide", "setting": "BAE cells; peptide added in solution", "value": "inhibited"}, {"measurement": "endothelial cell attachment on immobilized peptide", "setting": "BAE cells; peptides adsorbed at 10 μM (FIG. 11A)", "value": "attached specifically"}]}]}
